# Laboratory results reported in ChEMBL document CHEMBL1201862, “PubChem BioAssay data set” (2004).
# Active and inactive are the calls of the source.
# Key:
# [1] = biological target: Endoplasmic reticulum aminopeptidase 1 (Homo sapiens, UniProt Q9NZ08); test: inhibition of human ERAP1 enzyme activity – biochemical, cherry-pick, set 2, plate reader, dose response (AID 743314)
# [2] = Trypanosoma cruzi replication inhibitors in host cells – cell-based, plate reader, dry powder samples, dose response (AID 651845); type: functional
# [3] = anti-trypanosomal activity in BESM host cells – imaging, CA-I/72 strain, bovine embryo skeletal muscle, dry powder, dose response (AID 651885); type: functional, cell-based
# [4] = T. cruzi growth inhibition in host cells, dose response, cell-based, plate reader, dry powder, set 2 (AID 652275); type: functional
# [5] = viability loss in HEK293 kidney cells – cell-based, cherry-picks, set 5, cytotoxicity control, dose response (AID 1053117); type: functional
# [6] = blockers of FN fibrillogenesis by fibroblasts – AH1F cells, Alexa488-FN fluorescence, cherry-picks, dose response (AID 1035475); type: functional, cell-based
# [7] = biological target: T1, Oxysterols receptor LXR-beta (Homo sapiens, UniProt P55055); type: functional, cell-based;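 note: agonist activity at LXR measured by a cell-based luminescence readout across a dose range, run as a counterscreen for daf-12 agonists; HEK293 cells with Gal4-LXR fusion and GAL4-driven luciferase reporter; potency for activation of Gal4-LXR reporter so compounds are agonists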
# T1 sequence (P55055 whole entry): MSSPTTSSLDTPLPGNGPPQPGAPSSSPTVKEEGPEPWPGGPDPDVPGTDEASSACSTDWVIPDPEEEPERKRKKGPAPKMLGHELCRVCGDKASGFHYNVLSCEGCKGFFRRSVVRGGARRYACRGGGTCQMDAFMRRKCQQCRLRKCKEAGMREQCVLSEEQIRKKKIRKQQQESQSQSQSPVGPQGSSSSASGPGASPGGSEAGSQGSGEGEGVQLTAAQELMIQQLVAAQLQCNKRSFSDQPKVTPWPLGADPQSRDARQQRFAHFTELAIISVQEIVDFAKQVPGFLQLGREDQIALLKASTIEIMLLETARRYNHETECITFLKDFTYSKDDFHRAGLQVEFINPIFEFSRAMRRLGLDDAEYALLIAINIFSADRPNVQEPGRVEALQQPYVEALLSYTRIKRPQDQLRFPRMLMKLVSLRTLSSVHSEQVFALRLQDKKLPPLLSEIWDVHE
# [8] = biological target: T2, Sentrin-specific protease 7 (Homo sapiens, UniProt Q9BQF6); type: functional;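 note: Luminescence-based dose-response confirmation of ultra-high-throughput screening hits, measuring inhibition of SENP7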
# T2 sequence (Q9BQF6 whole entry): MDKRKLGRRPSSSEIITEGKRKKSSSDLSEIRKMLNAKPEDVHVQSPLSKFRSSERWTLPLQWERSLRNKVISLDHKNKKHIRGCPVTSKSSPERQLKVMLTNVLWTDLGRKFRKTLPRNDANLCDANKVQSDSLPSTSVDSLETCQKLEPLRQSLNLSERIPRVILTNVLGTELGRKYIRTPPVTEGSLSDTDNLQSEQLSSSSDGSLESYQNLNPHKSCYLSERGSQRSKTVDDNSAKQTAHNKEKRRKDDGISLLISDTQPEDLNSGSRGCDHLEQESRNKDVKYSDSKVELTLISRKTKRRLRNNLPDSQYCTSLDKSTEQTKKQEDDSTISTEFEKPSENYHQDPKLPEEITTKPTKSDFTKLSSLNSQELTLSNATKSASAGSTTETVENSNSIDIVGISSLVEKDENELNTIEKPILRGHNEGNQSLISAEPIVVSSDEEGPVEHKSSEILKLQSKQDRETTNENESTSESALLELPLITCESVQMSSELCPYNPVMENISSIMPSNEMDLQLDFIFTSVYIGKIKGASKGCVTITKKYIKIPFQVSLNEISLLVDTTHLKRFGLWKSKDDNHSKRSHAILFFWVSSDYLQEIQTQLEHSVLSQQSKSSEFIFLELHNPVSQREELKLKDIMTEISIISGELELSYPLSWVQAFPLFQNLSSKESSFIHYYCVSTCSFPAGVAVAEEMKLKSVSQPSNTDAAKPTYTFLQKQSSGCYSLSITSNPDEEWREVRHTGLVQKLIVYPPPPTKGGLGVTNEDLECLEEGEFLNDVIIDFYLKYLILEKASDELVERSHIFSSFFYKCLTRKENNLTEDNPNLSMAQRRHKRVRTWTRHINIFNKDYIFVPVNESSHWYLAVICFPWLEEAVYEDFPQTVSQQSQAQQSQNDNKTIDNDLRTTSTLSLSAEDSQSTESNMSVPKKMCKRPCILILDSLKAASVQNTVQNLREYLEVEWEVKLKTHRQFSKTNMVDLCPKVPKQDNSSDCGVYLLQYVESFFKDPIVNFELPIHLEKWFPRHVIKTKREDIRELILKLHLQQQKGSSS
# [9] = biological target: T3, Sentrin-specific protease 6 (Homo sapiens, UniProt Q9GZR1); type: functional;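 note: Luminescence-based dose-response confirmatory assay of SENP6 inhibition, following up an ultra-high-throughput screen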
# T3 sequence (Q9GZR1 whole entry): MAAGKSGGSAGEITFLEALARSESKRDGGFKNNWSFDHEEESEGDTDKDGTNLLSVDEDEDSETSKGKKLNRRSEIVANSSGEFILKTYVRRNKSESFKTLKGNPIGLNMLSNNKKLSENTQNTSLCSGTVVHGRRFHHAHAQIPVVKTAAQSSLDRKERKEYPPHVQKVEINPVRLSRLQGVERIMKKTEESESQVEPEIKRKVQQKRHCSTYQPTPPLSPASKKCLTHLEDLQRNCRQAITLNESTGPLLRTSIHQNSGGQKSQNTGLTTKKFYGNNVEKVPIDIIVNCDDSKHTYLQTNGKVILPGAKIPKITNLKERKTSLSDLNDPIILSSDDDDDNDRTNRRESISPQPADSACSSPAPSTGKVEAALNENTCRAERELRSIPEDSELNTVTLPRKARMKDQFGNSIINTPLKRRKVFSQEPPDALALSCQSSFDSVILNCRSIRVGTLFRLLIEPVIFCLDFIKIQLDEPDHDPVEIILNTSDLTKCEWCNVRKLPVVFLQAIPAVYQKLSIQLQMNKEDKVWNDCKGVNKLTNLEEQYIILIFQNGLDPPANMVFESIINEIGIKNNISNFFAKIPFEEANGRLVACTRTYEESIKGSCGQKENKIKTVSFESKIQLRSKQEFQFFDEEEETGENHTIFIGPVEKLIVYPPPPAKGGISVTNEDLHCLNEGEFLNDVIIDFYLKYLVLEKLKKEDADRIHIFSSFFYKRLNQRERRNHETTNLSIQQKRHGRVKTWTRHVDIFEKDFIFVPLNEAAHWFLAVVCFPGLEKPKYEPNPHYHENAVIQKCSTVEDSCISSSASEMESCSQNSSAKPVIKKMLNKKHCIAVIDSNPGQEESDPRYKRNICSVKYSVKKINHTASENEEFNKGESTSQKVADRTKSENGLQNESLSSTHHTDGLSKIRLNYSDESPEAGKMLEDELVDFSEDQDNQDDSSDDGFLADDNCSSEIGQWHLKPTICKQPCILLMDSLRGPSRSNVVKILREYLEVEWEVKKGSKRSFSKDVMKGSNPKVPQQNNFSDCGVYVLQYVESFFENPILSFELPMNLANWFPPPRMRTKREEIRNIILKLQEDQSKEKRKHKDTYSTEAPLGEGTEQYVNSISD
# Cytochrome P450 2D6 = Cytochrome P450 2D6 (Homo sapiens, UniProt P10635);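 note: CYP2D6 member of a cytochrome P450 panel assay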
# Cytochrome P450 2D6, sequence (P10635 whole entry): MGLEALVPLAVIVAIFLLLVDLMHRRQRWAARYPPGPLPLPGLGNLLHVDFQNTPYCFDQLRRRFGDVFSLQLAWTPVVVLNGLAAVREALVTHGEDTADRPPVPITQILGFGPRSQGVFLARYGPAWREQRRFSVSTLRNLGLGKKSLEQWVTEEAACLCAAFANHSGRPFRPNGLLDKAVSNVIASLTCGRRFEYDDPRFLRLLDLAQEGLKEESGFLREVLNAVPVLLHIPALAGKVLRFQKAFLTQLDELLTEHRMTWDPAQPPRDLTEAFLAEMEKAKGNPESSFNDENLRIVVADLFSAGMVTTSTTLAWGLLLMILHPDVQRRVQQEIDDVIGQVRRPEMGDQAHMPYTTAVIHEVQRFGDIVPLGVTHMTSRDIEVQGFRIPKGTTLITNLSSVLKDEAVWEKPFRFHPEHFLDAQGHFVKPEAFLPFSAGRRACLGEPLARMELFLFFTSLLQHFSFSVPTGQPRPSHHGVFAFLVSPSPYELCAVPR
# Cytochrome P450 2C9 = Cytochrome P450 2C9 (Homo sapiens, UniProt P11712)
# Cytochrome P450 2C9, sequence (P11712 whole entry): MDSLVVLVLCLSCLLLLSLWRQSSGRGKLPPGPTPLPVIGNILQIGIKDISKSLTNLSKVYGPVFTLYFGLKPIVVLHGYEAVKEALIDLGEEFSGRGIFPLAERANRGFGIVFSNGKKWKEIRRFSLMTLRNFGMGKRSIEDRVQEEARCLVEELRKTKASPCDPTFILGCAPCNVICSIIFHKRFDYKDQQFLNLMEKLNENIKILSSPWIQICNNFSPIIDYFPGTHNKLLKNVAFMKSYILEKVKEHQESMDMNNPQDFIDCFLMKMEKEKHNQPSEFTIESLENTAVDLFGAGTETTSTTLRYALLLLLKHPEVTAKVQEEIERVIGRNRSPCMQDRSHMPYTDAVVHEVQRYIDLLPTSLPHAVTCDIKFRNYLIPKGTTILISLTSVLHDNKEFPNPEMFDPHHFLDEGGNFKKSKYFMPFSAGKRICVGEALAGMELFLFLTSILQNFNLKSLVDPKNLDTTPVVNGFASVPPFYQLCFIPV
# Caspase-3 = biological target: T4, Caspase-3 (Homo sapiens, UniProt P42574); type: functional;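 note: Dose-response selectivity test against caspase-3 for candidate inhibitors of sentrin-specific proteases (SENPs)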
# T4 sequence (P42574 whole entry): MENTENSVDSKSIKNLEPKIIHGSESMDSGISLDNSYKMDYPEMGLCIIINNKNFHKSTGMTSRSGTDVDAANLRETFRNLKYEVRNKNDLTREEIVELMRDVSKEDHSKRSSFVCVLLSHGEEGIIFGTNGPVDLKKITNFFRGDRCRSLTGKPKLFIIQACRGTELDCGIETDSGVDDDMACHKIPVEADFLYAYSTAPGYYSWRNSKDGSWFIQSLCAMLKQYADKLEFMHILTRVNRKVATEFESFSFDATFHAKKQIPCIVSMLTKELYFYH
# [10] = biological target: T5, Sentrin-specific protease 8 (Homo sapiens, UniProt Q96LD8); type: functional;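 note: luminescence read-out of SENP8 inhibition, dose-response confirmation following an ultra-high-throughput screen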
# T5 sequence (Q96LD8 whole entry): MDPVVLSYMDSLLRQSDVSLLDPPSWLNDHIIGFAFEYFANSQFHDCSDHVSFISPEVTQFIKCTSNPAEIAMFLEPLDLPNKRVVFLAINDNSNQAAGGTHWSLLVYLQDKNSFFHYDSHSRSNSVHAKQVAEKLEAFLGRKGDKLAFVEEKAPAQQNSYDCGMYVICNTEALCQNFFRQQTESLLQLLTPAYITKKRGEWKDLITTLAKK
# [11] = biological target: 1-phosphatidylinositol 4,5-bisphosphate phosphodiesterase beta-3 (Homo sapiens, UniProt Q01970); test: Fluorescence-based biochemical high throughput dose response assay to identify inhibitors of phospholipase C isozymes (PLC-B3).
# 1-phosphatidylinositol 4,5-bisphosphate phosphodiesterase beta-3, sequence (Q01970 whole entry): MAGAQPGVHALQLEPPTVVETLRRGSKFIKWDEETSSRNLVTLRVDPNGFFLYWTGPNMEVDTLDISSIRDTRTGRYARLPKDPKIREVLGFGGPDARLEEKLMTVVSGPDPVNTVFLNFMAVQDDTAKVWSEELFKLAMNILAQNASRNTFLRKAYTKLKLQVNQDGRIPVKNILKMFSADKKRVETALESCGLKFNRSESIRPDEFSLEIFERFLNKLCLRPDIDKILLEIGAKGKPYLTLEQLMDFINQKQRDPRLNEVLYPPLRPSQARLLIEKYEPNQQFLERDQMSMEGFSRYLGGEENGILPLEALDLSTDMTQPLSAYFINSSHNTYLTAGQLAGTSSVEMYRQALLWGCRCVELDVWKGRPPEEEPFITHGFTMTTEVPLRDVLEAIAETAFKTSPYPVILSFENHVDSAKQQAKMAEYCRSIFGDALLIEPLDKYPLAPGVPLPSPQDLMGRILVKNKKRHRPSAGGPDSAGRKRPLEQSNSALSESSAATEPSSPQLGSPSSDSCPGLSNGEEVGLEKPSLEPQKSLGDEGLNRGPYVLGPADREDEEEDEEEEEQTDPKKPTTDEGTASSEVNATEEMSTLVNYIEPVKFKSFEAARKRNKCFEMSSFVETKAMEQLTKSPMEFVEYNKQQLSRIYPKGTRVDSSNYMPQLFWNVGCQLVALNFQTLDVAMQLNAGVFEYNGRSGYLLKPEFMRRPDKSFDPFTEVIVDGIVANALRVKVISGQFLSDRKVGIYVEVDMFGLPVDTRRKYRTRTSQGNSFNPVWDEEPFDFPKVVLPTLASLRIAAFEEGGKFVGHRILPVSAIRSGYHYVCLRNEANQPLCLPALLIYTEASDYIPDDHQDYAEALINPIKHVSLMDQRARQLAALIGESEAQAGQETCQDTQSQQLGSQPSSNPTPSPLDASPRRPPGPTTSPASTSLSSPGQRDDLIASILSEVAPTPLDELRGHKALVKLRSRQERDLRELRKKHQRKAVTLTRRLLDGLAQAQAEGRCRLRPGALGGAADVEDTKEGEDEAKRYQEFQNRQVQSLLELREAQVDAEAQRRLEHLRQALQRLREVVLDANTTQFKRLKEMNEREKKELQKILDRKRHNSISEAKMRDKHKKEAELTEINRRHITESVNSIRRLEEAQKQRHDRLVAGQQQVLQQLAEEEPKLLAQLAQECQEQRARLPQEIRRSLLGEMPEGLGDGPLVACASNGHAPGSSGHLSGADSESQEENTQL
# [12] = biological target: 1-phosphatidylinositol 4,5-bisphosphate phosphodiesterase gamma-1 (Homo sapiens, UniProt P19174); test: Counterscreen for inhibitors of phospholipase C isozymes (PLC-B3): Fluorescence-based biochemical high throughput dose response assay to identify inhibitors of phospholipase C isozymes (PLC-gamma1).
# 1-phosphatidylinositol 4,5-bisphosphate phosphodiesterase gamma-1, sequence (P19174 whole entry): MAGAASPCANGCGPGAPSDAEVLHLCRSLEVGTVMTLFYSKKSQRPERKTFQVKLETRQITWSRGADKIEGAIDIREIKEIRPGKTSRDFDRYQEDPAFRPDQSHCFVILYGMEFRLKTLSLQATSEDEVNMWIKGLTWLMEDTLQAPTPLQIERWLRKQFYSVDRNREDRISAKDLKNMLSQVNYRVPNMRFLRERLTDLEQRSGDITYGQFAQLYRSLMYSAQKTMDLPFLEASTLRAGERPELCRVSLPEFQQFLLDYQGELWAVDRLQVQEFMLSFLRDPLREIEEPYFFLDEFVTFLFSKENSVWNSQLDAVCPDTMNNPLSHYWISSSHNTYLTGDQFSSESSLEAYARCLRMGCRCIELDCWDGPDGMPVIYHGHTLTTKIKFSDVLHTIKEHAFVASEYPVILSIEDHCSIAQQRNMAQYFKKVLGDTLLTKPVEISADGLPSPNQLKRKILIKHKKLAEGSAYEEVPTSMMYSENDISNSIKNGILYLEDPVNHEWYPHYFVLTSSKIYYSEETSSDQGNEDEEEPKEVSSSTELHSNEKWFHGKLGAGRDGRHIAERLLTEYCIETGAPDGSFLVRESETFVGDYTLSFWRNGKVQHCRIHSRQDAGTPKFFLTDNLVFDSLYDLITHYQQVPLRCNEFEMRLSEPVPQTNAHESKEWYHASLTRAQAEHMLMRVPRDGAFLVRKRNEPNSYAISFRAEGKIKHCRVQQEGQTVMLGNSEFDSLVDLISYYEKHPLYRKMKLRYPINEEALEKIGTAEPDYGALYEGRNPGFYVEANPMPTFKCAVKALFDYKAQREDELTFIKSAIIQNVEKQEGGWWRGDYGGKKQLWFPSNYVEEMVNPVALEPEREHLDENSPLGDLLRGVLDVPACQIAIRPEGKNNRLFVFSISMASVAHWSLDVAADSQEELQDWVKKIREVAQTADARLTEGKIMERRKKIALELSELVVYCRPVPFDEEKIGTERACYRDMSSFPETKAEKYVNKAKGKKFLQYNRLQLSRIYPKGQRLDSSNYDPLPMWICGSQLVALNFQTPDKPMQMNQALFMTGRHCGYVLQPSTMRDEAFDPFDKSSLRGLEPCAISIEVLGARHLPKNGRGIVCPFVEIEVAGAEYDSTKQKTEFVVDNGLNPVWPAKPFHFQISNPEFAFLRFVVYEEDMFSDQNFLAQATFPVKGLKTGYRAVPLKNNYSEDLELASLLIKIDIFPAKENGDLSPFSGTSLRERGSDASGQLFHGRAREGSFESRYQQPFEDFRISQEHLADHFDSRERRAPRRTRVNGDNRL
# Endoplasmic reticulum aminopeptidase 1, sequence (Q9NZ08 whole entry): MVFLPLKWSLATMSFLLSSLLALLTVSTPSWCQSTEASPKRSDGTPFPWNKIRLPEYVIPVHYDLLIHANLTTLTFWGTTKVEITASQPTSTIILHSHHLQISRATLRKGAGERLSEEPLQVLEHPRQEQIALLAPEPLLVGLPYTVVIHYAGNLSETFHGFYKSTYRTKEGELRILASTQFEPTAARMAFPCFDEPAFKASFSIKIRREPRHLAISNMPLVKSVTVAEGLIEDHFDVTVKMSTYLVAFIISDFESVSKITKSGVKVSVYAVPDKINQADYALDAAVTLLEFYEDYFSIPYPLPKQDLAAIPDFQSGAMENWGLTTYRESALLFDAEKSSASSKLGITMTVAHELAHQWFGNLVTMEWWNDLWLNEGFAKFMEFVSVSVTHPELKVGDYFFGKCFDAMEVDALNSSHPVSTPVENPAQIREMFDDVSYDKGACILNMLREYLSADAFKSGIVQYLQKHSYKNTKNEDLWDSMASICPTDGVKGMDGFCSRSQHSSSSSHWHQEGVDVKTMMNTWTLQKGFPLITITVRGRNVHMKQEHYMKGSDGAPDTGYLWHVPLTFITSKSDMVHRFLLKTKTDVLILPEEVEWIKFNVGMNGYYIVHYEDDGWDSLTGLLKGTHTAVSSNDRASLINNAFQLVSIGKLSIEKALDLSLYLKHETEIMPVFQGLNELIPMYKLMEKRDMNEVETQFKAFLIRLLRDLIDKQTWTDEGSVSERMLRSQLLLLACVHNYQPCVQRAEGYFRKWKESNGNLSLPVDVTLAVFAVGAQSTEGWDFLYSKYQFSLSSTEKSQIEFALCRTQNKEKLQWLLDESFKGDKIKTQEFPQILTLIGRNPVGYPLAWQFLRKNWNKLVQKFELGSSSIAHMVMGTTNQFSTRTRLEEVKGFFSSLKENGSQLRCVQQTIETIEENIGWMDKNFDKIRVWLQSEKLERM
compound,measurement,setting,value
Cc1cc(=O)oc2c(CN3CCCC3)c(O)ccc12,AC50,[1],11.8 µM (active)
CCCn1ncc(CN(C)C[C@H]2Oc3c(NC(=O)c4ccncc4)cccc3C(=O)N(C(C)C)C[C@@H]2C)c1C,AC50,[2],0.521 µM (active)
same,IC50,[3],2.92 µM (inconclusive)
same,AC50,[4],0.521 µM (active)
C[C@@H]1CN([C@@H](C)CO)C(=O)c2cc(NC(=O)C3CCCCC3)ccc2O[C@@H]1CN(C)Cc1ccc(-c2ccccc2)cc1,AC50,[5],> 52 µM (inactive)
same,AC50,[6],> 70 µM (inactive)
O=[N+]([O-])c1cccnc1NCCNc1ncc(C(F)(F)F)cc1Cl,EC50,[7],> 67.5 µM (inactive)
same,IC50,[8],6.52 µM (active)
same,IC50,[9],19.1 µM (active)
same,AC50,Cytochrome P450 2D6,14.1 µM (inconclusive)
same,AC50,Cytochrome P450 2C9,inconclusive
same,IC50,Caspase-3,28.7 µM (active)
same,IC50,[10],23.3 µM (active)
COc1ccnc2c1c(=O)n(Cc1ccc(Cl)cc1Cl)c(=O)n2C,IC50,[11],> 122 µM (inactive)
same,IC50,[12],> 122 µM (inactive)
